Experimental data reported in patent publication US11046647B2, “Activators of the unfolded protein response” (The Board of Trustees of the University of Illinois, priority 2018, dated 2021).
Several values for one entry are separate records, joined by “and”; a condition that tells them apart may be missing. Equal values may be shown once.

Legend:
[1] = tested on: TYS-Luc (T47DERαY537S-Luc human breast cancer cells) tumors; assay: Orthotopic TYS-Luc mouse xenograft, bioluminescent imaging (BLI); assay type: in vivo
Description: In a treatment and vehicle-controlled mouse tumor study, human breast cancer cells were engineered to contain both the lethal ERαY537S mutation found in metastatic breast cancer, and the gene for firefly luciferase—when the appropriate chemical is added, the firefly luciferase breaks down the chemical and light is produced. Using a sensitive detector called an imaging system, this allows us to image the tumors inside live mice. This is called bioluminescent imaging, or BLI. Large tumors were allowed to form. Then (−)-105 was injected daily under the skin for three weeks. Using the imaging system, the effect of (−)-105 on the tumors was monitored. At the same time the effect of the vehicle in which (−)-105 was dissolved on tumors was also monitored.
A study was performed to determine what happens after stopping treatment with (−)-105 (Table 2). The study was designed to show whether the micro-tumors would remain dormant, or whether they would regrow. At the end of the three-week treatment, there is residual material that gives off a tiny amount of light which are termed “micro-tumors”. Based on sensitivity of the imaging system, it is believed these micro-tumors contain anywhere from 0˜1,000 cancer cells; the micro-tumors will not be visible to the naked eye. Seeing them requires the powerful imaging system, or a microscope. To test whether these cells are either dead, or no longer dividing and are dormant, the cells two and 4 weeks after they stopped receiving any treatment were imaged. This study tested whether growing cancer cells have been eradicated; this study continues.
In a 3-week study, large breast tumors were present at start of treatment and regressed as shown in the image of FIG. 17. The study was performed using Orthotopic TYS-Luc (injected cells: T47DERαY537-Luc human breast cancer cells), e.g., the most lethal ERα mutation in human in metastatic breast cancer. Tumors were grown in NSG mice. Further details are provided in the Examples.
Experimental Details of the Xenografts: TYS-Luc cells (5,000,000 cells in Matrigel) were injected into the upper mammary fat pad of ovariectomized female NSG (SCID) mice (Jackson labs). After 10 weeks, on day 0, large tumors (size range: 100-600 mm^3) were present. Mice were treated with the vehicle used to dissolve (−)-105, or (−)-105 at 40 mg/kd daily by subcutaneous injection. For bioluminescent imaging (BLI) of the tumors, the mice were anesthetized with isoflurane and Lucerfin, the luciferase substrate, was injected into the mice. Flux, the total member of light photons hitting the detector in one second was measured using an IVIS ([…]). Shown is the flux (in millions of units per second) for the entire area containing each tumor, or an equivalent area when the tumor is tiny or undetectable and the percent change in tumor size at each time a measurement was taken (day 0, day 3, week 1, week 2, week 3). Then treatment was stopped, and another measurement was taken two weeks letter. Note that tumors were also measured with calipers. […] After three days all the (−)-105 tumors has declined to undetectable using calipers.

[2] = tested on: protein synthesis in Caov-3 cells; assay: Protein synthesis inhibition (35S-methionine incorporation), Caov-3; assay type: cell-based, human; conditions: 1,000 nM
Description: ERα positive Caov-3, human ovarian cancer cells, were treated for the indicated times with 1,000 nM BHPI or 1,000 nM (−)-105. Cells were briefly labeled with ^35S-methionine. Incorporation of labeled ^35S-methionine into protein was determined by trichloroacetic acid precipitation and trapping of precipitated protein, but not free amino acids, in small Whatman hardened ashless filters. After solubilizing the protein in the filters with base and neutralization with acid, the samples were counted in a liquid scintillation counter. Shown is the average (n≥3) percent inhibition of protein synthesis compared to the 0-time sample. The near quantitative inhibition of protein synthesis by (−)-105 is consistent with (−)-105 inducing lethal hyperactivation of the PERK arm of the UPR. Even non-growing cells are constantly degrading protein and making new proteins. Cells in which nearly all (>90%) of protein synthesis is inhibited cannot grow and will ultimately die.

[3] = tested on: MYS and MDG cells (MCF-7 with Y537S or D538G ERα) tumors; assay: MYS-luc / MDG-luc orthotopic tumors; assay type: in vivo, mouse; conditions: daily dosing
Source text: FIG. 41. […]
FIG. 43. SERK-F6-mediated eradication of MYS/MDG tumors is dependent on quantitative cell killing. a-b, MYS-luc. orthotopic tumors were established in NSG ovariectomized mice (no E2 pellet, ˜45 days to establish) and dosed daily as indicated (n=5-6), b, Treatment of MYS-luc, tumors were stopped after 21 daily doses of SERK-F6 and mice tumor burden was tracked via bioluminescence. […]

[4] = 2 weeks after treatment stopped, per mouse
[5] = 4 weeks after treatment stopped, per mouse

O=C1Nc2c(C(F)(F)F)cccc2C1(c1ccc(O)cc1)c1ccc(OC(F)(F)F)cc1 (single isomer, unassigned; (-)) [(−)-105, 3-(4-hydroxyphenyl)-3-(4-(trifluoromethoxy)phenyl)-7-(trifluoromethyl)indolin-2-one]
tumor regrowth after sub-therapeutic dose ([1]; 10 mg/kg oral): tumors did regrow
Week 2 No Drug % Change in Tumor Flux [1, 4]: −99.95% and −99.84% and −100% (2×) and −99.991%
Week 2 No Drug Tumor Flux [1, 4]: 0.13 millions of photons/sec and 0.11 millions of photons/sec and 0 millions of photons/sec (2×) and 0.17 millions of photons/sec
health / toxicity of treated mice ([1]; 3-week treatment): No toxicity
micro-tumor regrowth after stopping treatment ([1]; 4 weeks after stopping treatment): NO “MICRO-TUMOR” REGROWTH
Week 4 No Drug % Change in Tumor Flux [1, 5]: −99.98% and −99.88% and −100% and −99.997% and −99.998%
Week 4 No Drug Tumor Flux [1, 5]: 0.038 millions of photons/sec (2×) and 0.084 millions of photons/sec and 0 millions of photons/sec and 0.048 millions of photons/sec
Day 3 Flux ([1]; Day 3, per mouse, 40 mg/kg daily, 40 mg/kg): 0.22 millions of photons/s and 0.043 millions of photons/s and 0.40 millions of photons/s and 0.29 millions of photons/s and 0.17 millions of photons/s
Day 3 % Change in Tumor Flux ([1]; Day 3 vs Day 0, per mouse): −99.99% (2×) and −99.98% (2×) and −99.45%
Day 7 Flux ([1]; Day 7, per mouse): 0.082 millions of photons/s and 0.041 millions of photons/s and 0.17 millions of photons/s and 0.059 millions of photons/s and 0.18 millions of photons/s
Day 7 % Change in Tumor Flux ([1]; Day 7 vs Day 0, per mouse): −99.996% (2×) and −99.99% (2×) and −99.77%
Day 14 Flux ([1]; Day 14, per mouse): 0.246 millions of photons/s and 0.039 millions of photons/s and 0.245 millions of photons/s and 0 millions of photons/s and 0.071 millions of photons/s
Day 14 % Change in Tumor Flux ([1]; Day 14 vs Day 0, per mouse): −99.99% (2×) and −99.66% and −100% and −99.996%
Day 21 Flux ([1]; Day 21, per mouse): 0.051 millions of photons/s and 0.16 millions of photons/s and 0.14 millions of photons/s and 0 millions of photons/s and 0.046 millions of photons/s
Day 21 % Change in Tumor Flux ([1]; Day 21 vs Day 0, per mouse): −99.998% and −99.94% and −99.81% and −100% and −99.997%
tumor regrowth upon treatment cessation ([1]; after 21 daily doses 40 mg/kg i.p.): tumors did not regrow
tumor regression by BLI, 4 of the 5 tumors ([1]; after 3 days of treatment): more than 99.9%
tumor regression by BLI, all five tumors ([1]; after 3 days of treatment): more than 99%
tumor size using calipers, all 5 mice ([1]; after 3 days of treatment): undetectable
tumor regression by BLI, 3 of the remaining 4 mice ([1]; after three weeks): more than 99.9%
effect on Y537S tumors (TYS cell line) ([1]; dose-dependent, i.p. and oral administration): eradicates Y537S tumors
tolerability ([1]; i.p. and oral administration): tolerated
Start Recovery Flux ([1]; start of no-drug recovery after 3 weeks treatment, per mouse): 0.16 millions of photons/sec and 0.14 millions of photons/sec and 0 millions of photons/sec and 0.046 millions of photons/sec and 0.051 millions of photons/sec
Start No Drug: % change in Tumor Flux ([1]; start of no-drug recovery, per mouse): −99.94% and −99.81% and −100% and −99.997%
microtumor regrowth after stopping treatment ([1]; two weeks after treatment was stopped): had not started growing again
tumor size using calipers, all 5 tumors ([1]; within seven days): undetectable size
inhibition of the synthesis of new proteins [2]: near-quantitative
tumor response [3]: Dramatic tumor regressions were observed
